Measured values published in paper PMC4398456, “Evidence for a Novel Mechanism of Antimicrobial Action of a Cyclic R-,W-Rich Hexapeptide” (PLoS ONE, 2015).
In brackets after ≈: the same amount, converted by molar mass. Residues, ends and D or L forms follow the SMILES beside them.

How the values were obtained:
[1] = ITC binding to LUVs; design: species or system E. coli; conditions: 25°C
Protocol: The lipid concentration of E. coli extract preparations was determined from dried lipid films by gravimetric analysis. Liposomes were prepared after resuspension in phosphate buffer and sonication on ice for 25 min under nitrogen stream using a Labsonic L ultrasonicator (B. Braun Biotech, Germany) followed by centrifugation for 5 min at 11000 × g (Eppendorf MiniSpin, Germany) to remove potential titanium debris. The diameter of LUVs from E. coli extract was 90 nm. According to manufacturer's data, E. coli polar lipid extract is a three component mixture containing 71.4% PE-, 23.4% PG-lipids and 5.2% CL (mol%).
High-sensitivity isothermal titration calorimetry (ITC) experiments to characterise peptide interaction with model membranes were performed at 25°C on a VP-ITC instrument (MicroCall, Malvern Instruments, UK). Binding data were generated as described before. Prior to use, solutions were gently degassed under vacuum. 10 μl aliquots of 5 to 10 mM lipid vesicles were titrated into a 40 μM peptide solution inside the calorimeter cell (1.4 ml) while the reaction mixture was continuously stirred at 307 rpm. Time intervals between injections were adjusted to 10 min which was sufficient for the heat signal to return to baseline level. Automated baseline adjustment and peak integration were accomplished with the public-domain software NITPIC [32].
Binding parameters, such as hydrophobic partition coefficient (K 0) and enthalpy of binding (ΔH°), were derived by applying a surface partition equilibrium under the specific condition that peptide adsorption is linearly related to the peptide concentration immediately above the membrane surface. This concentration in close proximity to the membrane is determined by electrostatic interactions and depends on the bulk concentration of peptide, peptide charge and membrane surface potential. Negatively charged lipid layers attract cationic peptides. Consequently, the membrane surface concentration is enhanced compared to that in the bulk solution. After binding of cationic peptides to an electrically neutral membrane it becomes positively charged which results in a repulsion of further peptides from the membrane surface. Using the Gouy—Chapman theory which accounts for electrostatic effects, it is possible to calculate the peptide surface concentration and to determine the partition coefficient K 0 [33]. Nonlinear least-squares data fitting was performed with Excel 2010 (Microsoft) using the Solver add-in (Frontline Systems). The Gibbs free energy was calculated according to ΔG° = -RT ln(55.5 M × K 0), where 55.5 M is the molar concentration of water in the aqueous phase. Finally, the entropic contribution to membrane partitioning,-TΔS°, was derived from the Gibbs-Helmholtz equation, ΔG° = ΔH°-TΔS°.

[2] = Calcein dye release from liposomes; assay type: biochemical; conditions: 10 μM peptide, 1 min, Tris buffer pH 7.4, room temperature; for permeabilisation (calcein dye release): fluorescence; for dye release: cardiolipin 40 mol%
Excerpt: Large unilamellar vesicles (LUVs) were used for isothermal titration calorimetry studies and prepared as described before. […] As CL potentially carries two negative charges it was applied at half POPG concentrations to give liposomes with identical surface charge. Subsequently, chloroform was evaporated under nitrogen stream and obtained lipid films were dried under high vacuum for several hours and rehydrated in phosphate buffer by thorough vortexing. The solution was heated 2–3 times in a water bath to 40°C to facilitate resuspension. POPE-LUVs were obtained after 35-fold extrusion through two stacked polycarbonate membranes (100 nm pore size) using a mini extruder (Avestin, Switzerland). The procedure gives vesicles with a diameter of 90–120 nm as determined with dynamic light scattering (DLS) performed on a Zetasizer Nano ZS ZEN 3600 (Malvern Instruments, UK). Large liposomes for dye release experiments were prepared with a solution of 80 mM calcein in 10 mM Tris buffer, 0.1 mM EDTA, pH 7.4 and treated to remove non-incorporated dye as described before.
Peptide-induced calcein release was monitored fluorimetrically by measuring the time-dependent decrease in self-quenching (ex 490 nm, em 514 nm) at room temperature on a LS 50B spectrofluorimeter (Perkin Elmer, Germany) as described before. Lipid concentration was 25 μM in Tris buffer (10 mM Tris, 154 mM NaCl, pH 7.4) and peptide concentrations ranged from 1 to 200 μM. The fluorescence intensity corresponding to 100% release was determined by addition of a 10% Triton X-100 solution. In this study, calcein release was analysed after 1 min of incubation with 10 μM peptide and 25 μM liposomal suspensions.

[3] = tested on: B. subtilis DSM 347; conditions: microdilution; reported before; cited from earlier work
[4] = tested on: E. coli L-WF+ (cell wall-deficient L-form, W1655 F+); assay type: cell-based; conditions: microdilution, 96-well, 0.05 to 100 μM peptide, BHI with supplements, OD550 0.4, 18 hours, 37°C; triplicates, at least three independent experiments
Protocol: (§1) For L-form bacteria BHI medium was supplemented with […] penicillin and additional 50 mg/ml sucrose and 30 mg/ml yeast extract in the case of B. subtilis L-170. L-form cells were cultivated as described above using flat bottom glass flasks and OD was measured at 550 nm (OD550 = 1 corresponds to 3.92 × 10^8 CFU/ml L-170 and 9.75 × 10^8 CFU/ml L-WF+).
(§2) To determine the minimal inhibitory peptide concentration (MIC) of bacterial growth we applied a microdilution technique as described previously. Briefly, the antimicrobial activity was tested against L-form bacteria in 96-well plates with final peptide concentrations ranging from 0.05 to 100 μM. Cultures were diluted to OD550 0.4 in BHI containing strain-specific supplements. Cells were grown for 18 hours at 37°C and 180 rpm. Peptide activity was tested in triplicates in at least three independent experiments.

[5] = tested on: B. subtilis L-170 (cell wall-deficient L-form); assay type: cell-based; conditions: microdilution, 96-well, 0.05 to 100 μM peptide, BHI with supplements, OD550 0.4, 18 hours, 37°C; triplicates, at least three independent experiments
Protocol: as §1, §2

[6] = tested on: E. coli DH5α; conditions: microdilution; reported before; cited from earlier work
[7] = tested on: B. subtilis 168; test: Cardiolipin staining with NAO, fluorescence microscopy; assay type: cell-based; conditions: 500 nM NAO 60 min, then 12 μM peptide 30 min, room temperature; 520 and 640 nm
Protocol: Cells were first incubated with the dye for 60 minutes in the dark, at room temperature at 600 rpm (ensuring sufficient aeration). Afterwards, cWFW was added at a final concentration of 12 μM and co-incubated with NAO for another 30 minutes under the same conditions.
Specific staining of CL with NAO has been shown before and is neither influenced by fixation nor depolarisation of the membrane. The emission shift from green to red fluorescence (513 nm to 640 nm) was reported to be exclusive for binding to CL and is caused by narrow stacking of dye molecules. Images were captured using a Zeiss Axiovert M200 inverted fluorescence microscope and an LSM 510 ConfoCor2 (Germany) with plan-apochromat 63, 100×/1.4 objective, respectively, and processed with ImageJ.

## N=C(N)NCCC[C@@H]1NC(=O)[C@H](CCCNC(=N)N)NC(=O)[C@H](Cc2c[nH]c3ccccc23)NC(=O)[C@H](Cc2ccccc2)NC(=O)[C@H](Cc2c[nH]c3ccccc23)NC(=O)[C@H](CCCNC(=N)N)NC1=O [cWFW] (cyclo(FWRRRW))
[1]; 10 mM LUVs into 40 μM peptide, γ = 0.6
  ΔH°: -3.99 kcal/mol
[1]; 10 mM LUVs titrated into 40 μM peptide, phosphate buffer pH 7.4, surface partition model, γ = 0.6
  K 0 (hydrophobic partition coefficient): 8.8e+06 M⁻¹
[1]; calculated as -RT ln(55.5 M × K 0), LUVs of E. coli extract
  ΔG°: -11.9 kcal/mol
[1]; from Gibbs-Helmholtz equation, LUVs of E. coli extract
  -TΔS°: -7.86 kcal/mol
[2]; CL content of 12.5% (matrix lipid not restated, follows sentence on POPE systems), 25 μM lipid
  peptide-induced dye release: 18%
[2]; PC/7.5% CL, 25 μM lipid
  permeabilisation (calcein dye release): 15%
[2]; PC/25% PG, 25 μM lipid
  permeabilisation (calcein dye release): 8%
[2]; PE/7.5% CL, 25 μM lipid
  permeabilisation (calcein dye release): 8%
[2]; PE/25%PG, 25 μM lipid (peptide/lipid 1/2.5)
  permeabilisation (calcein dye release): 2%
[2]; POPC-based LUVs, 25 μM lipid
  dye release: more than 70%
[2]; POPE-based LUVs, 25 μM lipid
  dye release: more than 70%
[3]
  MIC B. subtilis DSM 347: 3 µM (≈ 2.96 µg/mL)
[4]
  MIC E. coli L-WF+: 12 µM (≈ 11.9 µg/mL)
[5]
  MIC B. subtilis L-170: 6 µM (≈ 5.93 µg/mL)
[6]
  MIC E. coli DH5α: 3 µM (≈ 2.96 µg/mL)
[7]
  effect on NAO fluorescence (cardiolipin staining): significant decrease in NAO fluorescence intensity at both wavelengths
